From ChEMBL document CHEMBL1140432, “Synthesis and biological evaluation of a novel series of "ortho-nitrated" inhibitors of catechol-O-methyltransferase” (J Med Chem, 2005)

Columns and labels:
[1] = biological target: T1, Catechol O-methyltransferase (Rattus norvegicus, UniProt P22734); experiment: Inhibitory activity against COMT in rat liver
T1 sequence (P22734 whole entry): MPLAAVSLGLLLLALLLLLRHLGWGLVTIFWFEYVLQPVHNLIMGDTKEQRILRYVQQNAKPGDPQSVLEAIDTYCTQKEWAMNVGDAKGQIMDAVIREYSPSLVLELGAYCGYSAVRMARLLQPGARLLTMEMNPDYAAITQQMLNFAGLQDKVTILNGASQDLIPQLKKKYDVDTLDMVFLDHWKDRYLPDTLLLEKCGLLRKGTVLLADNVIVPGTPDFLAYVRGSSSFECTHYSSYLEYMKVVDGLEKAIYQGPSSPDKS

[2] = biological target: T1, Catechol O-methyltransferase; experiment: Inhibitory activity against COMT in rat brain; format: tissue-based

Compound	IC50 [1]	IC50 [2]
O=C(CCCCc1ccccc1)c1ccc(O)c(O)c1[N+](=O)[O-]	0.11 µM	0.004 µM
O=C(Cc1ccccc1)c1ccc(O)c(O)c1[N+](=O)[O-]	0.13 µM	0.003 µM
O=C(CCc1ccccc1)c1ccc(O)c(O)c1[N+](=O)[O-]	2 µM	0.004 µM
O=C(CCCc1ccccc1)c1ccc(O)c(O)c1[N+](=O)[O-]	0.13 µM	0.004 µM
